Assay results taken from US10413576B2, “Therapy for use in the treatment of tumors, acquired immunodeficiency syndrome and leukemias by dual immune biostimulation” (priority 2014, dated 2019).
Entries after “also recorded” stand apart in the source; their conditions may differ.

System: peripheral blood mononuclear cells (PBMC)
Assay: PBMC cell proliferation analysis (BrdU, cytofluorimetry)
Assay type: cell-based, human
Conditions: PBMC proliferative response vs absence of stimulation (baseline); cut-off P.I. 2
Method: Next, peripheral blood mononuclear cells were separated. The peripheral blood mononuclear cells (PBMC) were separated by density gradient centrifugation. For this aim, 20 ml of “buffy coat” of healthy donors from the immune-transfusion Service of Ospedale di Borgomanero (Italy) were used for each experiment, thus obtaining an average yield of 200×10^6 PBMC/buffy. The amount of separated cells was determined by cell count in Burker's chambers, using Turk's dye, which allows to discriminating between mononuclear and polymorphonuclear cells. […]
Then, the cell proliferation analysis was performed. Cell proliferation was assessed with a cytofluorimetric technique by using the bromodeoxyuridine (BrdU) nuclear labeling protocol. […] Following to 16-hour incubation at 37° C. under humidified atmosphere, 5% CO2, the cell proliferation was analyzed by a cytofluorirnetric technique. […] The cells were analyzed within 24 hours from their preparation by using a cytofluorimeter FACScalibur from Becton Dikinson Company and the analysis program CellQuest.
Results were expressed as cell proliferation index (P.I.), being calculated as ratio of the percentage of proliferating cells in the presence of stimulus and the percentage of the same in the absence of stimulation, A P.I. value greater than 2 was considered acceptable (cut-off value). […]

Phytohaemagglutinin [PHA]
cell proliferation index (P.I.): significantly higher; also recorded: greater than the cut-off value
